Like-named read-outs stand apart in the source and are kept apart here.
Tests used:
Format in all cases: physicochemical
[1] = Zeta-potential measurement; details: for Zeta pot. / mV: 1 mg/mL in PBS pH 7.4 from 10 mg/mL DMSO stock, 1 d RT, 60 µL diluted in 600 µL 1 mM KCl, Zetasizer Nano ZS, Smoluchowski, mean of triplicate; for Zeta-pot. / mV: zeta potential of peptide, Fig S15 source data
How it was run: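 Peptides diluted from DMSO stock into PBS pH 7.4 to 1 mg/mL and aged 1 d at RT, then diluted into 1 mM aqueous KCl. Zeta potential derived from electrophoretic mobility via Smoluchowski; triplicates, averaged over two independent experiments.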

[2] = Turbidity, derived count rate of scattered light; details: for Count Rate / kcps: derived count rate of scattered light at 633 nm, 173°, from zeta-potential measurement, 0.1 mg/mL in 1 mM KCl after 1 d at 1 mg/mL in PBS, turbidity / microscopic aggregation, mean of triplicate; for Log Count Rate: log of derived count rate; for Count Rate: turbidity
How it was run: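 Samples: 1 mg/mL in PBS pH 7.4 (from DMSO), 1 d at RT, then diluted in 1 mM KCl immediately before measurement. Triplicates, two independent runs averaged.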

[3] = Turbidity, derived count rate of scattered light; details: log10 of derived count rate of scattered light, Figure 7B
[4] = derived count rate from zeta measurement, mean
[5] = Fig S8 panels A, C, asymmetric log errors
[6] = Fig S8 panels B, D, derived count rate of scattered light
[7] = derived count rate of scattered light
[8] = derived count rate of scattered light, mean, std deviation in separate column
[9] = log10 of derived count rate of scattered light, Figure 6C
[10] = logarithm of count rate in kcps

Substance | Zeta pot. / mV [1] | Zeta-Potential / mV ([1]; mean, Figure 7B) | Count Rate / kcps [2] | Log10 Count Rate [3] | Zeta category ( +1 = if > 4 mV;-1 = if < -4 mV; 0 = -4mV to 4 mV) [1] | Zeta-pot. / mV [1] | also measured
KLVFFAK [reference compound] | 3.2 mV | 3.23 mV | 14 kcps | 1.159 |  |  | 
KYFIL [reference compound] | -7.2 mV | -7.18 mV | 18903 kcps | 4.277 |  |  | 
MKVIFLKDVKG [reference compound] | 9.6 mV | 9.62 mV | 137 kcps | 2.137 |  |  | 
IKFLSVN [reference compound] | 5.9 mV | 5.9 mV | 137 kcps | 2.136 |  |  | 
IFQINS [reference compound] | -11.0 mV | -10.98 mV | 36 kcps | 1.56 |  |  | 
IIIQGK [reference compound] | -7.6 mV | -7.56 mV | 10 kcps | 0.9808 |  |  | 
VHDCVNITIK [reference compound] |  | 9.27 mV | 12542 kcps | 4.098 |  |  | 
EIEIQINMWQ [VH8] |  |  |  |  | -1 (-1 = if < -4 mV) | -19.13 mV | Zeta Pot. / mV ([1]; mean, Std in separate column): -19.13 mV; Zeta Count Rate / kcps [2, 4]: 1264 kcps; Zeta Count Rate Category ([2]; key not given): 1
KIKQIIN [JGA3] |  |  |  |  | -1 (-1 = if < -4 mV) | -11.7 mV | Zeta Pot. / mV ([1]; mean, Std in separate column): -11.7 mV; Log Count Rate [2, 5]: 1.806; Log Count Rate ([2]; Fig S8 panels B, D): 1.806; Count Rate [2, 6]: 64.03; Zeta Count Rate / kcps [2, 4]: 64.03 kcps; Zeta Count Rate Category ([2]; key not given): 0
KYKYQY [KB1] |  |  |  |  | -1 (-1 = if < -4 mV) | -4.2 mV | Zeta Pot. / mV [1]: -4.2 mV; Zeta Count Rate Category ([2]; category 1 / 0, no key given): 0; Zeta Count Rate / kcps [2, 7]: 31.53 kcps
KIKIQINMWQRGD [VH17-II] |  |  |  |  | 0 (0 = -4mV to 4 mV) | 1.69 mV | Zeta Pot. / mV ([1]; mean, Std in separate column): 1.69 mV; Zeta Count Rate / kcps [2, 8]: 2783 kcps
KAKLTCT | -2.2992 mV |  | 16.8 kcps |  |  |  | Zeta-Potential / mV ([1]; mean, Figure 6C): -2.2992 mV; Log10 Count Rate [2, 9]: 1.225; Log10 Count Rate [2, 10]: 1.225
KVKVKVQV [JG14 / TG14] |  |  |  |  | 0 (0 = -4mV to 4 mV) | -3.41 mV | Zeta Pot. / mV [1]: -3.41 mV; Zeta Count Rate Category ([2]; category 1 / 0, no key given): 0; Zeta Count Rate / kcps [2, 7]: 94.37 kcps
RATVYV [reference compound] | -5.2 mV | -5.17 mV | 42 kcps | 1.621 |  |  | 
NKGAII [reference compound] | -9.5 mV | -9.46 mV | 68 kcps | 1.831 |  |  | 
LASLIYR [reference compound] | -5.0 mV | -5.01 mV | 105 kcps | 2.0205 |  |  | 
KLKLKLQL [TG16] |  |  |  |  | 1 (+1 = if > 4 mV) | 8.39 mV | Zeta Pot. / mV [1]: 8.39 mV; Zeta Count Rate Category ([2]; category 1 / 0, no key given): 0; Zeta Count Rate / kcps [2, 7]: 42.87 kcps
KIKIWIW |  |  | 607.7 kcps |  |  |  | Zeta-Potential / mV ([1]; mean, Figure 6C): 17.23 mV; Log10 Count Rate [2, 9]: 2.784; Log10 Count Rate [2, 10]: 2.784
KIKIQIN [JGB3] |  |  |  |  | 0 (0 = -4mV to 4 mV) | 3.34 mV | Zeta Pot. / mV ([1]; mean, Std in separate column): 3.34 mV; Log Count Rate [2, 5]: 1.638; Log Count Rate ([2]; Fig S8 panels B, D): 1.638; Count Rate [2, 6]: 43.43; Zeta Count Rate / kcps [2, 8]: 43.43 kcps
KIKIQINMWWWQ [VH12] |  |  |  |  | 1 (+1 = if > 4 mV) | 9.45 mV | Zeta Pot. / mV ([1]; mean, Std in separate column): 9.45 mV; Zeta Count Rate / kcps [2, 8]: 7596.3 kcps
HLHLPLL [CN14] |  |  |  |  | -1 (-1 = if < -4 mV) | -9.053 mV | Zeta Pot. / mV [1]: -9.053 mV; Zeta Count Rate Category ([2]; category 1 / 0, no key given): 1; Zeta Count Rate / kcps [2, 7]: 200 kcps
RQGNINIVA [reference compound] | 10.2 mV | 10.17 mV | 36 kcps | 1.551 |  |  | 
RFWFWFW |  |  | 30037.33333 kcps |  |  |  | Zeta-Potential / mV ([1]; mean, Figure 6C): 13.63 mV; Log10 Count Rate [2, 9]: 4.478; Log10 Count Rate [2, 10]: 4.478
IIIK [reference compound] | -3.8 mV | -3.82 mV | 26 kcps | 1.413 |  |  | 
KIKIQINMWWQ [VH11] |  |  |  |  | 1 (+1 = if > 4 mV) | 11.8 mV | Zeta Pot. / mV ([1]; mean, Std in separate column): 11.8 mV; Zeta Count Rate / kcps [2, 8]: 3893 kcps
CKFKFPF | -1.053 mV |  | 143.4 kcps |  |  |  | Zeta-Potential / mV ([1]; mean, Figure 6C): -1.053 mV; Log10 Count Rate [2, 9]: 2.156; Log10 Count Rate [2, 10]: 2.156
GYVIIK [reference compound] | 9.9 mV | 9.88 mV | 30 kcps | 1.476 |  |  | 
